Measurements taken from publication PMC6109075, “Characterization of membrane penetration and cytotoxicity of C9orf72-encoding arginine-rich dipeptides” (Scientific Reports, 2018).
Entries after “also recorded” stand apart in the source; their conditions may differ. Ends that are not written are not given here. Peptide text beside a SMILES is read from it.

Legend:
[1] = Peptides absorption assay (buffer / octanol containing oleic acid); assay type: physicochemical; details: FITC-labeled peptide, buffers of different pH vs octanol containing 1% oleic acid (v/v), vortexed 5 min, fluorescence
Experimental: All buffers used for the peptide absorption assay were prepared with 140 mM NaCl, 2.5 mM KCl, 5 mM HEPES, 5 mM glycine, and the final pH was adjusted with NaOH or HCl.
The assay to show the effect of pH in peptides absorption into a hydrophobic phase was performed as previously reported. […] Fifty microliter of the buffer-peptide mix and 50 μl of octanol containing 1% of oleic acid (OA) (v/v) were placed into a microtubes and vortexed for 5 min, followed by centrifugation at 2200 g briefly to separate the octanol phase and buffer phase. After separation, octanol phase containing OA and absorbed peptides were collected and the fluorescence was measured by a plate reader TECAN infinite F200 (Mannedorf, Switzerland).

Hela cells = test: Peptide penetration assay, Hela cells at different pH (imaging); assay type: cell-based, human; details: PBS pH6.0, pH7.4, pH8.0, 2 μM FITC-peptide, 1 hr
Experimental: For imaging, Hela cells were washed twice with phosphate buffered saline (PBS) (pH7.4) and then incubated with PBS of different pH (pH6.0, pH7.4 and pH8.0) containing 2 μM of FITC-(PR)20 or FITC-R12 for 1 hr, followed by washing with PBS twice. For quantification, HEK293 cells were incubated with 10 μM FITC-(PR)20 in 10% FBS-DMEM for 30 min at 4 °C or 37 °C. The cells were washed twice with PBS and then re-suspended in PBS. The fluorescent signal was measured by a plate reader TECAN infinite F200.

[2] = tested on: protein translation (Hela cell lysates); test: In vitro translation (IVT) assay, turboGFP fluorescence; assay type: biochemical, human; details: cell-free IVT, 100 μM peptide, turboGFP cDNA and Hela cell lysates, 37 °C, read every 1 min, N = 3
Experimental: IVT assay was performed with 1-step Human-Coupled IVT kit (ThermoFisher) following manufacturer’s protocol. Briefly, turboGFP cDNA and Hela cell lysates were mixed in a 96 white-well PCR plate in the presence or absence of 100 μM of each peptide and incubated at 37 °C. The fluorescence from translated turboGFP was measured by LightCycler (Roche lifescience) every 1 min.

HEK293 cells = test: Confocal imaging of live or fixed/permeabilized HEK293 cells treated with FITC-labeled CPPs; assay type: cell-based, human; details: for entry into fixed/permeabilized cells: HEK293 cells after fixation/permeabilization, 10 μM FITC-peptide
Experimental: HEK293 cells were treated with 10 μM of FITC-labeled CPPs for 1 hr in combination with Nucblue live dye and then washed with PBS twice. The images were obtained by FV10 confocal microscopy (Olympus, Japan) or LSM710 confocal microscopy (Zeiss, Germany).
For RNAse A treatment, the HEK293 cells, fixed and permeabilized, were incubated with 10 μg/ml of recombinant RNAse A for 1 hr at 37 °C, followed by treatment with 10 μM of FITC-labeled peptides for 30 min. The cells were then washed with PBS twice and imaged with a confocal microscopy.

[3] = Functional assay of (PR)12 stability after incubation in culture medium; assay type: in vitro ADME; details: 20 µM (PR)12-FITC, 2 hr with live HEK293 cells in DMEM-10%FBS, conditioned medium transferred to fixed/permeabilized HEK293 cells, read-out nucleolar accumulation
NSC34 cells [4] = test: LDH release assay in NSC34 cells; assay type: cell-based, mouse; details: 24 hr, N = 6
Experimental: LDH assay was performed with Cytotoxicity LDH Assay Kit-WST from Wako (Japan) following the manufacture’s protocol. Briefly, mouse neuronal NSC34 cells or human fibroblasts were plated on a 96-well plate at 2 × 10^4 cells/well and then treated with the indicated concentration of peptide for 24 hr (NSC34 cells) or 48 hr (fibroblasts) before measurement of LDH release. The absorbance was measured by iMark microplate absorbance reader (Biorad).

NSC34 cells [5] = test: Cytotox glo assay in NSC34 cells; assay type: cell-based, mouse; details: 24 hr, N = 6
From the text: Anti-B23/nucleophosmin antibody was purchased from Cell signaling technology (Danvers, MA). RNAse A was obtained from Qiagen (Hilden, Germany). 1-Step Human Coupled IVT kit, oleic acid, poly-A RNA, Prolong Gold with DAPI and Nucblue live reagent were purchased from ThermoFisher Scientific (Waltham, MA). Cytotoxicity LDH Assay Kit-WST and octanol were obtained from Wako pure chemicals (Japan). Cell Titer-Glo and Cell-tox glo kits were purchased from Promega (Madison, WI). TAMRA-labeled random 15mer RNA was synthesized by Fasmac (Japan). Anti-puromycin antibody was purchased from Millipore.

NSC34 cells [6] = test: Penetration of FITC-conjugated DRPs into NSC34 cells; assay type: cell-based, mouse; details: fluorescence intensity
EGFR (Homo sapiens) = EGFR (Homo sapiens) (UniProt P00533); details: cited from earlier work

Compound: human insulin: FITC-labeled recombinant human insulin (51 a.a.), non-permeable, from Sigma
- effect of pH on absorption of peptide into the octanol phase [1]: did not enhance the absorption

Compound: N=C(N)NCCC[C@H](NC(=O)[C@H](CCCNC(=N)N)NC(=O)[C@H](CCCNC(=N)N)NC(=O)[C@H](CCCNC(=N)N)NC(=O)[C@H](CCCNC(=N)N)NC(=O)[C@H](CCCNC(=N)N)NC(=O)[C@H](CCCNC(=N)N)NC(=O)[C@H](CCCNC(=N)N)NC(=O)[C@H](CCCNC(=N)N)NC(=O)[C@H](CCCNC(=N)N)NC(=O)[C@H](CCCNC(=N)N)NC(=O)[C@H](CCCNC(=N)N)NC(=S)Nc1ccc2c(c1)C(=O)OC21c2ccc(O)cc2Oc2cc(O)ccc21)C(=O)O [FITC-R12]
- effect of extracellular pH on distribution of peptide into cells (Hela cells): higher pH increased the distribution of FITC-labeled CPPs into the cells

Compound: amyloid β: amyloid β (40 a.a.), negative control peptide, from Peptide Institute
- inhibition of protein translation in vitro (tGFP fluorescence) [2]: did not see inhibitory effect

Compound: N=C(N)NCCC[C@H](NC(=O)[C@@H]1CCCN1C(=O)[C@H](CCCNC(=N)N)NC(=O)[C@@H]1CCCN1C(=O)[C@H](CCCNC(=N)N)NC(=O)[C@@H]1CCCN1C(=O)[C@H](CCCNC(=N)N)NC(=O)[C@@H]1CCCN1C(=O)[C@H](CCCNC(=N)N)NC(=O)[C@@H]1CCCN1C(=O)[C@H](CCCNC(=N)N)NC(=O)[C@@H]1CCCN1C(=O)[C@H](CCCNC(=N)N)NC(=O)[C@@H]1CCCN1C(=O)[C@H](CCCNC(=N)N)NC(=O)[C@@H]1CCCN1C(=O)[C@H](CCCNC(=N)N)NC(=O)[C@@H]1CCCN1C(=O)[C@H](CCCNC(=N)N)NC(=O)[C@@H]1CCCN1C(=O)[C@H](CCCNC(=N)N)NC(=O)[C@@H]1CCCN1C(=O)[C@H](CCCNC(=N)N)NC(=O)[C@@H]1CCCN1C(=S)Nc1ccc2c(c1)C(=O)OC21c2ccc(O)cc2Oc2cc(O)ccc21)C(=O)O [FITC-(PR)12] (HELM PEPTIDE1{[O=C1OC2(c3ccc(O)cc3Oc3cc(O)ccc32)c2ccc(NC(=S)[*:2])cc21].P.R.P.R.P.R.P.R.P.R.P.R.P.R.P.R.P.R.P.R.P.R.P.R}$$$$V2.0)
- entry into fixed/permeabilized cells (HEK293 cells): entered the cells and accumulated to nucleoli

Compound: PRPRPRPRPRPRPRPRPRPRPRPR [(PR)12]
- stability in the culture medium [3]: stable in the culture medium
- cytotoxicity, LDH release (NSC34 cells [4]): did not show cytotoxicity

Compound: PRPRPRPRPRPRPRPRPRPRPRPRPRPRPRPRPRPRPRPR [(PR)20]
- cytotoxicity, Cytotox glo luminescence (NSC34 cells [5]): killed the cells
- cytotoxicity, LDH release (NSC34 cells [4]): killed the cells; also recorded: exerted stronger cytotoxicity
- penetration into NSC34 cells (NSC34 cells [6]): entered NSC34 cells more efficiently

Compound: N=C(N)NCCC[C@H](NC(=O)[C@@H]1CCCN1C(=O)[C@H](CCCNC(=N)N)NC(=O)[C@@H]1CCCN1C(=O)[C@H](CCCNC(=N)N)NC(=O)[C@@H]1CCCN1C(=O)[C@H](CCCNC(=N)N)NC(=O)[C@@H]1CCCN1C(=O)[C@H](CCCNC(=N)N)NC(=O)[C@@H]1CCCN1C(=O)[C@H](CCCNC(=N)N)NC(=O)[C@@H]1CCCN1C(=O)[C@H](CCCNC(=N)N)NC(=O)[C@@H]1CCCN1C(=O)[C@H](CCCNC(=N)N)NC(=O)[C@@H]1CCCN1C(=O)[C@H](CCCNC(=N)N)NC(=O)[C@@H]1CCCN1C(=O)[C@H](CCCNC(=N)N)NC(=O)[C@@H]1CCCN1C(=O)[C@H](CCCNC(=N)N)NC(=O)[C@@H]1CCCN1C(=O)[C@H](CCCNC(=N)N)NC(=O)[C@@H]1CCCN1C(=O)[C@H](CCCNC(=N)N)NC(=O)[C@@H]1CCCN1C(=O)[C@H](CCCNC(=N)N)NC(=O)[C@@H]1CCCN1C(=O)[C@H](CCCNC(=N)N)NC(=O)[C@@H]1CCCN1C(=O)[C@H](CCCNC(=N)N)NC(=O)[C@@H]1CCCN1C(=O)[C@H](CCCNC(=N)N)NC(=O)[C@@H]1CCCN1C(=O)[C@H](CCCNC(=N)N)NC(=O)[C@@H]1CCCN1C(=O)[C@H](CCCNC(=N)N)NC(=O)[C@@H]1CCCN1C(=O)[C@H](CCCNC(=N)N)NC(=O)[C@@H]1CCCN1C(=S)Nc1ccc2c(c1)C(=O)OC21c2ccc(O)cc2Oc2cc(O)ccc21)C(=O)O [FITC-(PR)20] (HELM PEPTIDE1{[O=C1OC2(c3ccc(O)cc3Oc3cc(O)ccc32)c2ccc(NC(=S)[*:2])cc21].P.R.P.R.P.R.P.R.P.R.P.R.P.R.P.R.P.R.P.R.P.R.P.R.P.R.P.R.P.R.P.R.P.R.P.R.P.R.P.R}$$$$V2.0)
- entry into fixed/permeabilized cells (HEK293 cells): entered the cells and accumulated to nucleoli
- penetration of the plasma membrane of live cells (HEK293 cells; live HEK293 cells, 10 μM FITC-peptide added to culture medium): penetrated the plasma membrane and accumulated to nucleoli

Compound: GE11
- Kd (EGFR (Homo sapiens)): 22 nM

Compound: N=C(N)NCCC[C@H](NC(=O)CNC(=O)[C@H](CCCNC(=N)N)NC(=O)CNC(=O)[C@H](CCCNC(=N)N)NC(=O)CNC(=O)[C@H](CCCNC(=N)N)NC(=O)CNC(=O)[C@H](CCCNC(=N)N)NC(=O)CNC(=O)[C@H](CCCNC(=N)N)NC(=O)CNC(=O)[C@H](CCCNC(=N)N)NC(=O)CNC(=O)[C@H](CCCNC(=N)N)NC(=O)CNC(=O)[C@H](CCCNC(=N)N)NC(=O)CNC(=O)[C@H](CCCNC(=N)N)NC(=O)CNC(=O)[C@H](CCCNC(=N)N)NC(=O)CNC(=O)[C@H](CCCNC(=N)N)NC(=O)CNC(=O)[C@H](CCCNC(=N)N)NC(=O)CNC(=O)[C@H](CCCNC(=N)N)NC(=O)CNC(=O)[C@H](CCCNC(=N)N)NC(=O)CNC(=O)[C@H](CCCNC(=N)N)NC(=O)CNC(=O)[C@H](CCCNC(=N)N)NC(=O)CNC(=O)[C@H](CCCNC(=N)N)NC(=O)CNC(=O)[C@H](CCCNC(=N)N)NC(=O)CNC(=O)[C@H](CCCNC(=N)N)NC(=O)CN)C(=O)O [(GR)20]
- penetration into NSC34 cells (NSC34 cells [6]): also entered the cells as well
